Like-named read-outs stand apart in the source and are kept apart here.
Columns and labels:
[1] = test system: TR3 expression; settings: human prostate cancer cells; cited from earlier work
[2] = test system: prostate cancer cells; settings: cited from earlier work
[3] = test system: lung and breast cancer cells; settings: cited from earlier work
[4] = test system: TR3 expression; settings: lung cancer cells; cited from earlier work
[5] = test system: estrogen-dependent and -independent breast cancer cells; settings: estrogen-dependent and -independent cell lines; cited from earlier work
[6] = test system: TR3 expression; test: TR3 expression by Northern blotting in MDA-MB-231 cells; assay type: cell-based; settings: 3 h, MM11453 and MM11384 10^−6 M, TPA 100 ng/ml, EGF 200 ng/ml
Protocol: TR3 is also expressed in both estrogen-dependent ZR-75-1 and in estrogen-independent MDA-MB-231 breast cancer cells (Wu et al. 1997 Mol Cell Bio 17:6598-6608). […] Total RNAs were prepared from MDA-MB-231 cells treated with MM1153 (10^−6 M), MM11384 (10^−6M), TPA (100 ng/ml) or EGF (200 ng/ml) for 3 h. and analyzed by Northern blotting.

[7] = test system: MDA-MB-231 cells; test: GFP-TR3 subcellular localization by confocal microscopy in MDA-MB-231 cells; assay type: cell-based; settings: 10^−6 M, 1 hour
Protocol: Subcellular localization assays—Cells were seeded onto cover-slips in 6-well plates overnight, then transiently transfected with GFP-fusion expression plasmids. After 16 hours, cells were washed with PBS and fixed in 4% paraformaldehyde. For mitochondrial staining, cells were then incubated with anti-Hsp60 goat IgG (Santa Cruz, USA), followed by anti-goat IgG conjugated with Cy3 (Sigma). For cyt c staining, cells were incubated with monoclonal anti-cyt c IgG (PharMingen), followed by anti-mouse IgG conjugated with Cy5 (Amersham). Fluorescent images were collected and analyzed using a MRC-1024 MP laser-scanning confocal microscope (Bio-Rad). Subcellular fractionation assays were performed as described (Li, et al. 2000 Science 289:1159-1164). Briefly, cells (1×10^7 cells) suspended in 0.5 ml hypotonic buffer (5 mM Tris-HCl, pH 7.4, 5 mM KCl, 1.5 mM MgCl2, 0.1 mM EGTA, pH 8.0, and 1 mM DTT) were homogenized and cell extracts were centrifuged at 500×g for 5 min. […]
To study whether the TR3 nuclear-to-mitochondrial targeting pathway also occurs in breast cancer cells, a GFP-TR3 fusion construct was transfected into MDA-MB-231 cells. […] Next, GFP-TR3/ΔDBD was transiently transfected into ZR-75-1 or MDA-MB-231 cells, stained for mitochondria (Hsp60) and cytochrome c (Cyt c), and analyzed by confocal microscopy.

[8] = test system: TR3/Bcl-2 interaction; test: Co-IP of endogenous TR3 and Bcl-2 in LNCaP cells; assay type: cell-based; settings: TPA 3 hours
Protocol: A. co-immunoprecipitation assays—to identify the interaction between TR3 and Bcl-2, a monoclonal antibody was generated against the ligand-binding domain (GBD) of TR3 for co-immunoprecipitation (Co-IP) assays. LNCaP cells were treated with TPA to induce endogenous TR3 expression for 3 hours. Cell extracts were prepared from TPA-treated and non-treated cells and incubated with mouse monoclonal anti-TR3 antibody. Immunoblotting of immunoprecipitates employed anti-Bcl-2 antibody or rabbit polyclonal anti-TR3 anti-body (Active Motif).

[9] = test system: LNCaP prostate cancer cells; test: Colocalization of endogenous TR3 and transfected Bcl-2 in LNCaP cells; assay type: cell-based; settings: TPA 100 ng/ml, 3 h
Protocol: D. co-localization in cells—First the interaction of endogenous TR3 and transfected Bcl-2 colocalization was identified in cells. The phorbol ester 12-0-tetradecanoyl phorbol-13-acetate (TPA) induces the expression of endogenous TR3 and its mitochondrial localization in LNCaP prostate cancer cells. LNCaP cells were transfected with Bcl-2 expression vector, treated with or without TPA (100 ng/ml) for 3 h, then immunostained with anti-Bcl-2 antibody (Santa Cruz) followed by Cy5-conjugated secondary antibody (Amersham Biosciences), or with mouse monoclonal anti-TR3 antibody followed by Cy3-conjugated secondary antibody (Sigma). Endogenous TR3 and transfected Bcl-2 were visualized using confocal microscopy and images were overlaid. […] TR3 was not detected prior to TPA treatment. […] In TPA-stimulated cells, the distribution patterns of endogenous TR3 and transfected Bcl-2 overlapped extensively in the cytoplasm, colocalizing with Hsp60, a mitochondria-specific protein.

[10] = molecular target: T1, Bcl-2 (Homo sapiens, UniProt P10415); test: GST pull-down assay; assay type: binding
T1 construct: expressed in transfected cells; host or cells: HEK293T
T1 sequence (P10415 whole entry): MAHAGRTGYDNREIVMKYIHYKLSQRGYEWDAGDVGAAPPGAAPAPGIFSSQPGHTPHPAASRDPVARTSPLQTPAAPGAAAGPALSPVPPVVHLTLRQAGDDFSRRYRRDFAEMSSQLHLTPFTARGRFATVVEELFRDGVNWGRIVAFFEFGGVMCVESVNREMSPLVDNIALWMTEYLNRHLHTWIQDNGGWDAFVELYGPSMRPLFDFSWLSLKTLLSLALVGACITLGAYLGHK
Protocol: (§1) TR3/Bcl-2 interaction assays—Reporter gene assays using NurRE-tk-CAT in CV-1 cells, and GST pull-down assay were described previously (Li, et al. 2000 Science 289, 1159-1164). For the mammalian two-hybrid assays, CV-1 cells were co-transfected with pcDNA-Gal4TAD-TR3 or pcDNA-Gal4TAD-TR3/ΔDBD and pcDNA-Gal4DBD-Bcl-2/ΔTM along with a luciferase reporter gene driven by four copies of the Gal4-binding site. The cells were harvested and reporter gene activity was measured. For Co-IP assays, HEK293T cells were transiently transfected with various expression plasmids using a modified calcium phosphate precipitation method (Wu et al, 1997) in the presence of caspase inhibitors (zVAD-fmk) to prevent degradation of TR3 protein due to apoptosis. Cells were suspended in lysis buffer (50 mM Tris-HCl, PH7.4; 150 mM NaCl; 20 mM EDTA; 1% NP-40; 1 mM PMSF; 50 μg/ml Leupeptin; […]; 0.1 mM Na3VO4; and 1 mM DTT). Cells extracts were cleared by incubation with the Protein A/G plus Agarose beads (Santa Cruz) and then incubated with appropriate antibody and 30 μl of Protein A or G plus Agarose beads overnight at 4° C. […] Immunoreactive products were detected by chemiluminescence with an enhanced chemiluminescence system (ECL) (Amersham).
C. in vitro protein binding assays. […] Bound proteins were analyzed by SDS-PAGE autoradiography. ^35S-labeled Bcl-2 was pulled down by GST-TR3 but not by GST. […]

[11] = molecular target: T2, Bcl-2/ΔTM (Homo sapiens, UniProt P10415); test: Mammalian two-hybrid assay in CV-1 cells; assay type: cell-based; settings: Gal-TAD fusion co-expressed with Gal4-DBD-Bcl-2/ΔTM, 48 h
T2 construct: expressed in transfected cells; host or cells: CV-1
T2 sequence (P10415 1-204 limits assumed, stated change not applied): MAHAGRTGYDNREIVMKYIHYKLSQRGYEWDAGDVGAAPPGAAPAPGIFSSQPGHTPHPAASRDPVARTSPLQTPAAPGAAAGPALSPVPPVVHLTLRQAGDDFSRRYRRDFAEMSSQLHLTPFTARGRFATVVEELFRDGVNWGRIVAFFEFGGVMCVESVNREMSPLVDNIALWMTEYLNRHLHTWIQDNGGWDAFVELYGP
Protocol: as §1, with “DTT).” for “DTT). Cells extracts were cleared by incubation with the Protein A/G plus Agarose beads (Santa Cruz) and then incubated with appropriate antibody and 30 μl of Protein A or G plus Agarose beads overnight at 4° C.”
E. Two-hybrid assay—a two-hybrid assay was performed to assess the interaction of TR3 and Bcl-2. […] Reporter gene activity was determined 48 h later and normalized relative to β-gal activity.

In the case of `CNc1ccc2oc(C[C@H]3O[C@@]4(CC[C@H]3C)O[C@H]([C@H](C)C(=O)c3ccc[nH]3)[C@H](C)C[C@H]4C)nc2c1C(=O)O` [A23187], the TR3 expression [1] is given as “induced TR3 expression”.

For `O=C(O)c1ccc2cc(-c3ccc(O)c(C45CC6CC(CC(C6)C4)C5)c3)ccc2c1` [AHPN, 6-[3-(1-adamantyl)-4-hydroxyphenyl]-2-naphthalene carboxylic acid], the “apoptosis of prostate cancer cells” value [2] is given as “potently induces apoptosis”, the “apoptosis of lung and breast cancer cells” value [3] is given as “effectively induce apoptosis” and the TR3 expression [4] is given as “significantly induced”. The “apoptosis of breast cancer cells” value [5] was “effectively induces apoptosis”.

For `Cc1cc2c(cc1/C=C(\Br)C(=O)c1ccc(C(=O)O)cc1)C(C)(C)CCC2(C)C` [MM11384, (Z)-4-[2-bromo-3-(5,6,7,8-tetrahydro-3,5,5,8,8-pentamethyl-2-naphthalenyl)propenoyl]benzoic acid], the TR3 expression [6] is listed as “induced”, the TR3 expression [1] is listed as “induced TR3 expression” and the GFP-TR3 subcellular localization [7] is listed as “translocated to mitochondria”.

For `O=C(O)c1cc2ccc(-c3ccc(O)c(C45CC6CC(CC(C6)C4)C5)c3)cc2cc1Cl` [MM11453, 6-[3-(1-adamantyl)-4-hydroxyphenyl]-3-chloro-2-naphthalenecarboxylic acid], the TR3 expression [6] is listed as “significantly induced”, the TR3 expression [1] is listed as “induced TR3 expression” and the GFP-TR3 subcellular localization [7] is listed as “translocated to mitochondria”. For the same compound, the “apoptosis of breast cancer cells” value [5] was “effectively induces apoptosis”.

In the case of `CCCCCCCCCCCCCC(=O)O[C@@H]1[C@@H](C)[C@@]2(O)[C@@H](C=C(CO)C[C@]3(O)C(=O)C(C)=C[C@@H]23)[C@@H]2C(C)(C)[C@]12OC(C)=O` [TPA, 12-O-tetradecanoyl phorbol-13-acetate], the TR3 expression [6] is given as “induced”, the “co-immunoprecipitation of Bcl-2 by anti-TR3 antibody” value [8] is given as “specifically co-immunoprecipitated” and the TR3 expression [1] is given as “induced TR3 expression”. The TR3 immunostaining [9] was “strong TR3 immunostaining” and the “cells demonstrating colocalization of endogenous TR3 and transfected Bcl-2” value [9] was “Approximately 80%”.

For `COc1cc([C@@H]2c3cc4c(cc3[C@@H](O[C@@H]3O[C@@H]5CO[C@@H](C)O[C@H]5[C@H](O)[C@H]3O)[C@H]3COC(=O)[C@H]23)OCO4)cc(OC)c1O` [VP-16], the TR3 expression [1] is listed as “induced TR3 expression”.

For “EGF: the mitogenic agent epidermal growth factor”, the TR3 expression [6] was “induced”.

With “GST-TR3: GST fusion of TR3 immobilized on glutathione-Sepharose” the “binding of ^35S-labeled Bcl-2” value [10] was “pulled down”.

With “TR3: orphan receptor TR3, nuclear transcription factor” the “Gal4 reporter gene activity” value [11] was “strongly activated”.

Reference: patent publication US8273705B2, “Conversion of apoptotic proteins” (The Burnham Institute, priority 2002, dated 2012)
